Data as given in PubChem BioAssay AID1259407 (Chemical Carcinogenesis Research Information System (CCRIS), 2018).
Calls of active or inactive are those of the source. The rule behind the calls is not given here.

Tested on: CCRIS mutagenicity, Ames/micronucleus/aberration tests
Test: CCRIS mutagenicity studies
[1] = Test System: AMES SALMONELLA TYPHIMURIUM, Strain/Indicator: TA98, Metabolic Activation: NONE, Method: STANDARD PLATE
[2] = Test System: AMES SALMONELLA TYPHIMURIUM, Strain/Indicator: TA100, Metabolic Activation: NONE, Method: STANDARD PLATE
[3] = Test System: AMES SALMONELLA TYPHIMURIUM, Strain/Indicator: TA1535, Metabolic Activation: NONE, Method: STANDARD PLATE
[4] = Test System: AMES SALMONELLA TYPHIMURIUM, Strain/Indicator: TA1537, Metabolic Activation: NONE, Method: STANDARD PLATE
[5] = Test System: AMES SALMONELLA TYPHIMURIUM, Strain/Indicator: TA1538, Metabolic Activation: NONE, Method: STANDARD PLATE

Which results are given for `CN(C)c1ccc([C@H]2C[C@@]3(C)[C@@H](CC[C@@]3(O)/C=C\CO)[C@@H]3CCC4=CC(=O)CCC4=C32)cc1`?
mutagenic call (End Point: IN VITRO CHROMOSOMAL ABERRATIONS, Test System: HUMAN PERIPHERAL LYMPHOCYTES, Metabolic Activation: NONE): inactive; negative; mutagenic call (End Point: IN VITRO CHROMOSOMAL ABERRATIONS, Test System: HUMAN PERIPHERAL LYMPHOCYTES, Metabolic Activation: RAT, LIVER, S-9, AROCLOR 1254): inactive; negative; mutagenic call [1]: inactive; negative; mutagenic call (Test System: AMES SALMONELLA TYPHIMURIUM, Strain/Indicator: TA98, Metabolic Activation: RAT, LIVER, S-9, AROCLOR 1254, Method: STANDARD PLATE): inactive; negative; mutagenic call [2]: inactive; negative; mutagenic call (Test System: AMES SALMONELLA TYPHIMURIUM, Strain/Indicator: TA100, Metabolic Activation: RAT, LIVER, S-9, AROCLOR 1254, Method: STANDARD PLATE): inactive; negative; mutagenic call [3]: inactive; negative; mutagenic call (Test System: AMES SALMONELLA TYPHIMURIUM, Strain/Indicator: TA1535, Metabolic Activation: RAT, LIVER, S-9, AROCLOR 1254, Method: STANDARD PLATE): inactive; negative; mutagenic call [4]: inactive; negative; mutagenic call (Test System: AMES SALMONELLA TYPHIMURIUM, Strain/Indicator: TA1537, Metabolic Activation: RAT, LIVER, S-9, AROCLOR 1254, Method: STANDARD PLATE): inactive; negative; mutagenic call [5]: inactive; negative; mutagenic call (Test System: AMES SALMONELLA TYPHIMURIUM, Strain/Indicator: TA1538, Metabolic Activation: RAT, LIVER, S-9, AROCLOR 1254, Method: STANDARD PLATE): inactive; negative

With `CCCCCc1cc(O)c2c(c1)OC(C)(C)[C@@H]1CCC(C)=C[C@@H]21` as the molecule, how does the mutagenic call (Test System: AMES SALMONELLA TYPHIMURIUM, Strain/Indicator: TA97, Metabolic Activation: HAMSTER, LIVER, S-9, AROCLOR 1254 (10 OR 30%), Method: PREINCUBATION) read?
The mutagenic call was “inactive; negative”.

What about the mutagenic call (Test System: AMES SALMONELLA TYPHIMURIUM, Strain/Indicator: TA97, Metabolic Activation: NONE, Method: PREINCUBATION) of the same molecule?
The mutagenic call was “inactive; negative”.

What about the mutagenic call (Test System: AMES SALMONELLA TYPHIMURIUM, Strain/Indicator: TA97, Metabolic Activation: RAT, LIVER, S-9, AROCLOR 1254 (10 OR 30%), Method: PREINCUBATION) of the same molecule?
Its mutagenic call is “inactive; negative”.

And the mutagenic call (Test System: AMES SALMONELLA TYPHIMURIUM, Strain/Indicator: TA98, Metabolic Activation: HAMSTER, LIVER, S-9, AROCLOR 1254 (10 OR 30%), Method: PREINCUBATION)?
Its mutagenic call is “inactive; negative”.

What about the mutagenic call (Test System: AMES SALMONELLA TYPHIMURIUM, Strain/Indicator: TA98, Metabolic Activation: NONE, Method: PREINCUBATION) of the same molecule?
Its mutagenic call is “inactive; negative”.

And the mutagenic call (Test System: AMES SALMONELLA TYPHIMURIUM, Strain/Indicator: TA98, Metabolic Activation: RAT, LIVER, S-9, AROCLOR 1254 (10 OR 30%), Method: PREINCUBATION)?
The mutagenic call was “inactive; negative”.

What about the mutagenic call (Test System: AMES SALMONELLA TYPHIMURIUM, Strain/Indicator: TA100, Metabolic Activation: HAMSTER, LIVER, S-9, AROCLOR 1254 (10 OR 30%), Method: PREINCUBATION) of the same molecule?
Its mutagenic call is “inactive; negative”.

And the mutagenic call (Test System: AMES SALMONELLA TYPHIMURIUM, Strain/Indicator: TA100, Metabolic Activation: NONE, Method: PREINCUBATION)?
The mutagenic call was “inactive; negative”.

What about the mutagenic call (Test System: AMES SALMONELLA TYPHIMURIUM, Strain/Indicator: TA100, Metabolic Activation: RAT, LIVER, S-9, AROCLOR 1254 (10 OR 30%), Method: PREINCUBATION) of the same molecule?
The mutagenic call was “inactive; negative”.

And the mutagenic call (Test System: AMES SALMONELLA TYPHIMURIUM, Strain/Indicator: TA1535, Metabolic Activation: HAMSTER, LIVER, S-9, AROCLOR 1254 (10 OR 30%), Method: PREINCUBATION)?
Its mutagenic call is “inactive; negative”.

And the mutagenic call (Test System: AMES SALMONELLA TYPHIMURIUM, Strain/Indicator: TA1535, Metabolic Activation: NONE, Method: PREINCUBATION)?
Its mutagenic call is “inactive; negative”.

What about the mutagenic call (Test System: AMES SALMONELLA TYPHIMURIUM, Strain/Indicator: TA1535, Metabolic Activation: RAT, LIVER, S-9, AROCLOR 1254 (10 OR 30%), Method: PREINCUBATION) of the same molecule?
Its mutagenic call is “inactive; negative”.

How did the mutagenic call (Test System: CHINESE HAMSTER OVARY, Strain/Indicator: CHO-K1 (HGPRT), Metabolic Activation: NONE) turn out when `COc1nc(N)nc2c1ncn2[C@H]1C[C@H](O)[C@@H](COP(=O)(O)OP(=O)(O)OP(=O)(O)O)O1` was run?
Its mutagenic call is “inactive; negative”.

`Fc1cnc2c(c1)cc(F)c1ccccc12` was tested. Which mutagenic call (Test System: AMES SALMONELLA TYPHIMURIUM, Strain/Indicator: TA100, Metabolic Activation: RAT, LIVER, S-9, PHENOBARBITAL AND 5,6-BENZOFLAVONE, Method: PREINCUBATION) did it give?
Its mutagenic call is “inactive; negative”.

Which results are given for `Cc1c2ccccc2c(C)c2c3c(ccc12)[C@H](O)[C@@H](O)C=C3`?
mutagenic call (Test System: CHINESE HAMSTER V-79, Strain/Indicator: V-79/6-THIOGUANINE, Metabolic Activation: CELL-MEDIATED, Method: STANDARD PLATE): active; positive; mutagenic call (Test System: CHINESE HAMSTER V-79, Strain/Indicator: V-79/OUABAIN, Metabolic Activation: CELL-MEDIATED, Method: STANDARD PLATE): active; positive

`CC(C)COS(C)(=O)=O` was tested. Which mutagenic call (End Point: IN VITRO MICRONUCLEUS, Test System: MOUSE LYMPHOMA L5178Y CELLS, Metabolic Activation: NONE) did it give?
Its mutagenic call is “inactive; negative; significant increase at highly/excessively cytotoxic doses”.

What about the mutagenic call (End Point: IN VITRO MICRONUCLEUS, Test System: MOUSE LYMPHOMA L5178Y CELLS, Metabolic Activation: RAT, LIVER, S-9) of the same molecule?
Its mutagenic call is “inactive; negative”.

What about the mutagenic call [2] of the same molecule?
The mutagenic call was “active; positive”.

And the mutagenic call (Test System: AMES SALMONELLA TYPHIMURIUM, Strain/Indicator: TA100, Metabolic Activation: RAT, LIVER, S-9, Method: STANDARD PLATE)?
The mutagenic call was “active; positive”.

How did the mutagenic call (Test System: CHINESE HAMSTER V-79, Strain/Indicator: V-79/8-AZAGUANINE, Metabolic Activation: RAT, LIVER, S-9, AROCLOR 1254, Method: STANDARD PLATE) turn out when `Cc1ccc2cc3c(ccc4ccccc43)c3c2c1C(O)C3` (centres undefined) was run?
Its mutagenic call is “active; positive”.

Which mutagenic call [1] does the source give for `CC(C)NCC1CCc2cc(CO)c([N+](=O)[O-])cc2N1` (centres undefined) here?
The mutagenic call was “active; positive”.

What about the mutagenic call (Test System: AMES SALMONELLA TYPHIMURIUM, Strain/Indicator: TA98, Metabolic Activation: RAT, LIVER, S-9, AROCLOR 1254 OR PHENOBARBITOL, Method: STANDARD PLATE) of the same molecule?
Its mutagenic call is “active; positive”.

And the mutagenic call (Test System: AMES SALMONELLA TYPHIMURIUM, Strain/Indicator: TA100(FR1), Metabolic Activation: NONE, Method: STANDARD PLATE)?
The mutagenic call was “inactive; negative”.

What about the mutagenic call (Test System: AMES SALMONELLA TYPHIMURIUM, Strain/Indicator: TA100(FR1), Metabolic Activation: RAT, LIVER, S-9, PHENOBARBITAL AND 3-METHYLCHOLANTHRENE, Method: STANDARD PLATE) of the same molecule?
The mutagenic call was “inactive; negative”.

What about the mutagenic call (Test System: AMES SALMONELLA TYPHIMURIUM, Strain/Indicator: TA100, Metabolic Activation: RAT, LIVER, S-9, AROCLOR 1254 OR PHENOBARBITOL, Method: STANDARD PLATE) of the same molecule?
The mutagenic call was “active; positive”.

And the mutagenic call (Test System: AMES SALMONELLA TYPHIMURIUM, Strain/Indicator: TA100, Metabolic Activation: RAT, LIVER, S-9, PHENOBARBITAL AND 3-METHYLCHOLANTHRENE, Method: STANDARD PLATE)?
Its mutagenic call is “inactive; negative”.

What about the mutagenic call [3] of the same molecule?
Its mutagenic call is “inactive; negative”.

What about the mutagenic call (Test System: AMES SALMONELLA TYPHIMURIUM, Strain/Indicator: TA1535, Metabolic Activation: RAT, LIVER, S-9, AROCLOR 1254 OR PHENOBARBITOL, Method: STANDARD PLATE) of the same molecule?
The mutagenic call was “inactive; negative”.

And the mutagenic call [4]?
Its mutagenic call is “inactive; negative”.

And the mutagenic call (Test System: AMES SALMONELLA TYPHIMURIUM, Strain/Indicator: TA1537, Metabolic Activation: RAT, LIVER, S-9, AROCLOR 1254 OR PHENOBARBITOL, Method: STANDARD PLATE)?
The mutagenic call was “inactive; negative”.

What about the mutagenic call [5] of the same molecule?
The mutagenic call was “inactive; negative”.

What about the mutagenic call (Test System: AMES SALMONELLA TYPHIMURIUM, Strain/Indicator: TA1538, Metabolic Activation: RAT, LIVER, S-9, AROCLOR 1254 OR PHENOBARBITOL, Method: STANDARD PLATE) of the same molecule?
Its mutagenic call is “inactive; negative”.

What about the mutagenic call (Test System: CHINESE HAMSTER V-79, Strain/Indicator: V-79/6-THIOGUANINE, Metabolic Activation: NONE) of the same molecule?
The mutagenic call was “active; positive”.

And the mutagenic call (Test System: CHINESE HAMSTER V-79, Strain/Indicator: V-79/6-THIOGUANINE, Metabolic Activation: RAT, LIVER, HEPATOCYTES)?
The mutagenic call was “active; positive”.

What about the mutagenic call (Test System: CHINESE HAMSTER V-79, Strain/Indicator: V-79/OUABAIN, Metabolic Activation: NONE) of the same molecule?
Its mutagenic call is “active; positive”.

And the mutagenic call (Test System: CHINESE HAMSTER V-79, Strain/Indicator: V-79/OUABAIN, Metabolic Activation: RAT, LIVER, HEPATOCYTES)?
The mutagenic call was “active; positive”.
